Laboratory results published in ChEMBL document CHEMBL5625267, “Glycosidase-activated H2S donorsto enhance chemotherapy efficacy” (Bioorg Med Chem Lett, 2024).
Calls of active or inactive are those of the source. The rule behind the calls is not given here.

Legend:
HepG2 [1] = test: Antiproliferative activity against human HepG2 cells assessed as cell viability at 80 uM incubated for 24 hrs by MTT assay relative to control; type: functional; settings: read-out: Activity
HeLa [2] = test: Antiproliferative activity against human HeLa cells assessed as cell viability at 50 uM incubated for 24 hrs by MTT assay relative to control; type: functional; settings: read-out: Activity
HepG2 [3] = test: Antiproliferative activity against human HepG2 cells assessed as cell viability at 50 uM incubated for 24 hrs by MTT assay relative to control; type: functional; settings: read-out: Activity
[4] = Antiproliferative activity against mouse 3T3 cells assessed as cell viability at 50 uM incubated for 24 hrs by MTT assay relative to control; type: toxicity, cell-based; settings: NIH3T3 cells, read-out: Activity
HeLa [5] = test: Antiproliferative activity against human HeLa cells assessed as cell viability at 80 uM incubated for 24 hrs by MTT assay relative to control; type: functional; settings: read-out: Activity
[6] = Antiproliferative activity against mouse 3T3 cells assessed as cell viability at 80 uM incubated for 24 hrs by MTT assay relative to control; type: toxicity, cell-based; settings: NIH3T3 cells, read-out: Activity
HepG2 [7] = test: Induction of apoptosis in human HepG2 cells at 80 uM incubated for 24 hrs by annexin V-FITC/propidium iodide staining based flow cytometry analysis relative to control; type: functional
[8] = Release of H2S in PBS at 50 uM at pH 7.4; type: physicochemical; settings: buffer, pH 7.4, 50 µM
HeLa [9] = test: Induction of apoptosis in human HeLa cells at 80 uM incubated for 24 hrs by annexin V-FITC/propidium iodide staining based flow cytometry analysis relative to control; type: functional
HeLa [10] = test: Induction of apoptosis in human HeLa cells assessed as viable cells at 80 uM incubated for 24 hrs by annexin V-FITC/propidium iodide staining based flow cytometry analysis (reference value: 91.7 %); type: functional; settings: read-out: Activity
HeLa [11] = test: Induction of apoptosis in human HeLa cells assessed as early apoptotic cells at 80 uM incubated for 24 hrs by annexin V-FITC/propidium iodide staining based flow cytometry analysis (reference value: 3.59 %); type: functional
HeLa [12] = test: Induction of apoptosis in human HeLa cells assessed as late apoptotic cells at 80 uM incubated for 24 hrs by annexin V-FITC/propidium iodide staining based flow cytometry analysis (reference value: 3.95 %); type: functional
HeLa [13] = test: Induction of apoptosis in human HeLa cells assessed as necrotic cells at 80 uM incubated for 24 hrs by annexin V-FITC/propidium iodide staining based flow cytometry analysis (reference value: 0.71 %); type: functional
HepG2 [14] = test: Induction of apoptosis in human HepG2 cells assessed as viable cells at 80 uM incubated for 24 hrs by annexin V-FITC/propidium iodide staining based flow cytometry analysis (reference value: 87.1 %); type: functional; settings: read-out: Activity
HepG2 [15] = test: Induction of apoptosis in human HepG2 cells assessed as early apoptotic cells at 80 uM incubated for 24 hrs by annexin V-FITC/propidium iodide staining based flow cytometry analysis (reference value: 1.03 %); type: functional
HepG2 [16] = test: Induction of apoptosis in human HepG2 cells assessed as late apoptotic cells at 80 uM incubated for 24 hrs by annexin V-FITC/propidium iodide staining based flow cytometry analysis (reference value: 10.1 %); type: functional
HepG2 [17] = test: Induction of apoptosis in human HepG2 cells assessed as necrotic cells at 80 uM incubated for 24 hrs by annexin V-FITC/propidium iodide staining based flow cytometry analysis (reference value: 1.63 %); type: functional
HepG2 [18] = test: Cytotoxicity against human HepG2 cells assessed as cell viability at 80 uM incubated for 24 hrs by MTT assay relative to control; type: functional; settings: read-out: Activity
HepG2 [19] = test: Cytotoxicity against human HepG2 cells assessed as cell viability at 100 uM incubated for 24 hrs by MTT assay relative to control; type: functional; settings: read-out: Activity
HepG2 [20] = test: Cytotoxicity against human HepG2 cells assessed as cell viability at 80 uM incubated for 24 hrs in presence of doxorubicin by MTT assay relative to control; type: functional; settings: read-out: Activity
HepG2 [21] = test: Cytotoxicity against human HepG2 cells assessed as cell viability at 100 uM incubated for 24 hrs in presence of doxorubicin by MTT assay relative to control; type: functional; settings: read-out: Activity
HepG2 [22] = test: Release of H2S in human HepG2 cells assessed as fold increase in fluorescence intensity at 50 uM incubated for 7 hrs in presence of fluorescent probe WPS-1 measured after 30 mins by confocal imaging analysis; type: ADME, cell-based; settings: hepg2, 7.5 h

| Activity [8] [%] | SMILES | viability at 80 µM (HepG2 [1]) [%] | viability at 50 µM (HeLa [2]) [%] | viability at 50 µM (HepG2 [3]) [%] | viability at 24 h, 50 µM [4] [%] | viability at 80 µM (HeLa [5]) [%] | viability at 24 h, 80 µM [6] [%] | Activity (HepG2 [7]) | Activity (HeLa [9]) | other results |
| --- | --- | --- | --- | --- | --- | --- | --- | --- | --- | --- |
| – | O=C(Nc1ccc(C(F)(F)F)cc1)OCc1ccc(O[C@H]2O[C@H](CO)[C@@H](O)[C@H](O)[C@@H]2O)c(Br)c1 | 51.6 | – | – | – | – | – | – | – | – |
| 36 | OC[C@H]1O[C@@H](Oc2ccc(COC(=S)Nc3ccc(C(F)(F)F)cc3)cc2Br)[C@H](O)[C@@H](O)[C@H]1O | 86.8 | 97.5 | 82.2 | 86.8 | 88.2 | 89.2 | 20.9% | – | – |
| 36 | OC[C@H]1O[C@@H](Oc2ccc(COC(=S)Nc3ccc(C(F)(F)F)cc3)cc2)[C@H](O)[C@@H](O)[C@@H]1O | 91.2 | 86.9 | 87.9 | 88.1 | 92 | 91.7 | inactive | inactive | – |
| 36 | OC[C@H]1O[C@H](Oc2ccc(COC(=S)Nc3ccc(C(F)(F)F)cc3)cc2)[C@@H](O)[C@@H](O)[C@@H]1O | 90.2 | 97.4 | 81.7 | 94.5 | 95 | 95.3 | inactive | inactive | – |
| 36 | OC[C@H]1O[C@@H](Oc2ccc(COC(=S)Nc3ccc(C(F)(F)F)cc3)cc2F)[C@H](O)[C@@H](O)[C@@H]1O | 86 | 96 | 88.6 | 88.9 | 100 | 90.8 | inactive | inactive | – |
| 36 | Cc1ccc(NC(=S)OCc2ccc(O[C@@H]3O[C@H](CO)[C@H](O)[C@H](O)[C@H]3O)cc2)cc1 | 96.9 | 97.1 | 95.8 | 110 | 96.3 | 103 | inactive | inactive | – |
| 36 | OC[C@H]1O[C@H](Oc2ccc(COC(=S)Nc3ccc(C(F)(F)F)cc3)cc2Br)[C@@H](O)[C@@H](O)[C@@H]1O | 37.6 | 102 | 53.2 | 83.6 | 70.8 | 62.3 | 51.8% | 45.2% | viability at 80 µM (HeLa [10]): 50.6%; Activity (HeLa [11]): 21.1%; Activity (HeLa [12]): 23.3%; Activity (HeLa [13]): 4.98%; viability at 80 µM (HepG2 [14]): 50.7%; Activity (HepG2 [15]): 10.8%; Activity (HepG2 [16]): 37.4%; Activity (HepG2 [17]): 1.13%; viability at 80 µM (HepG2 [18]): 73%; viability at 100 µM (HepG2 [19]): 67%; viability at 80 µM (HepG2 [20]): 64%; viability at 100 µM (HepG2 [21]): 46%; fold change (FC) (HepG2 [22]): 7 |
